Measurements: PMC7116001 (Science (New York, N.Y.), 2020)

Target: T1, S. acidocaldarius 20S proteasome (Saci_0613/Saci_0662ΔN/Saci_0909ΔN) (Sulfolobus acidocaldarius, UniProt Q4JAA8)
T1 sequence (Q4JAA8 11-203): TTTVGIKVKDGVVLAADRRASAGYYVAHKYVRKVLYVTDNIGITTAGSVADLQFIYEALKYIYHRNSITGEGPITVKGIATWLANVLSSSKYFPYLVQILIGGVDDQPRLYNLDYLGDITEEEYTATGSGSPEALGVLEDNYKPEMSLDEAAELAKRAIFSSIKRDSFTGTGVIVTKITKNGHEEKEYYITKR
T1 sequence (Q4JB24 1-242 partner): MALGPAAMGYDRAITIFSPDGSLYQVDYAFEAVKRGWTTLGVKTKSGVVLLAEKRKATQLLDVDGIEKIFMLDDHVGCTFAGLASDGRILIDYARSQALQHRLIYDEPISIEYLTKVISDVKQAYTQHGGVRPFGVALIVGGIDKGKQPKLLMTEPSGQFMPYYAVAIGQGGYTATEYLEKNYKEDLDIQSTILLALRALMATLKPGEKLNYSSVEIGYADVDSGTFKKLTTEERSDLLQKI
T1 sequence (Q4JAY3 7-195 partner): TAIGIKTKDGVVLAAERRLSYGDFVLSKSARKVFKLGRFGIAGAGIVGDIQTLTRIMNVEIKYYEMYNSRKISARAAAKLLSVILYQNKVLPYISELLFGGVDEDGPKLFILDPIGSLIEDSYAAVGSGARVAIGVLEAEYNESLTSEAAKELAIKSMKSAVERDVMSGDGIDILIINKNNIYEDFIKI
Experiment: degradation of Urm1
Type: biochemical
Conditions: substrate 3xUrm1-GFP; covalent (reversible boronate on Thr1, modelled)

With `CC(C)C[C@H](NC(=O)[C@H](Cc1ccccc1)NC(=O)c1cnccn1)B(O)O` [bortezomib] as the molecule, how does the “rate of substrate degradation” value read?
The value was “with different concentrations of inhibitor, the rate of substrate degradation was diminished”.
